Data: patent US11440899B2, “Pyrimidine TBK/IKKe inhibitor compounds and uses thereof” (Merck Patent GmbH, priority 2017, dated 2022)

Key:
[1] = biological target: TBK1 (Homo sapiens (Human), UniProt Q9UHD2); assay: TBK Biochemical Assay
Summary of the method: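 Enzyme and substrate with compound (10-point 1:4 series, top 30 uM final, 1% DMSO) incubated 90 min at 25 °C, then stopped; substrate/product separated and read by LabChip mobility-shift, staurosporine 10 uM final as full-inhibition control.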

[2] = biological target: IKKe (Homo sapiens (Human), UniProt Q14164); assay: IKKe Biochemical Assay
Summary of the method: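 Human IKKε activity was measured with compounds in a 10-point 1:4 dilution series, top concentration 30 uM final, in 1% DMSO final; 10 uM staurosporine served as the control. Enzyme and substrate were incubated 90 min at 25° C, then stopped, and substrate/product peaks were separated by microfluidic mobility-shift on a LabChip EZ Reader II.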

Sequence of IKKe (Q14164 whole entry, species assumed): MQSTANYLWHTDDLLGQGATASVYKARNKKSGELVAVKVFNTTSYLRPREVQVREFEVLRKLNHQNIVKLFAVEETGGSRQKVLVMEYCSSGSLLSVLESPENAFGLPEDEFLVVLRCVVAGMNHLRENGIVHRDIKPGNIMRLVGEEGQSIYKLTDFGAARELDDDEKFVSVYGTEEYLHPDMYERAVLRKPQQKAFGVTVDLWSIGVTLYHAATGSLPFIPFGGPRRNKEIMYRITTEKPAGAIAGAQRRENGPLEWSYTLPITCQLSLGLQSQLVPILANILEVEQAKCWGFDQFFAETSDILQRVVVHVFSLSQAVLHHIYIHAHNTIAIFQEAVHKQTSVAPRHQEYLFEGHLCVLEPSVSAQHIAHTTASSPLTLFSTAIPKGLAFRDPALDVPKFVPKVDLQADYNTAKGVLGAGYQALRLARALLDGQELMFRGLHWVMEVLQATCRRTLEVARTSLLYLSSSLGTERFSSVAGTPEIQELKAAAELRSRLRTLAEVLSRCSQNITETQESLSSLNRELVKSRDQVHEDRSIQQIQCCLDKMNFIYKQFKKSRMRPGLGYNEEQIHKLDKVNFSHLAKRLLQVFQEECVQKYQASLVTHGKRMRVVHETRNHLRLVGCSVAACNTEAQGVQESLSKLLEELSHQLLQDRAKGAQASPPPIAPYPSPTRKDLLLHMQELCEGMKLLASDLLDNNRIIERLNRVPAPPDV
Sequence of TBK1 (Q9UHD2 whole entry, species assumed): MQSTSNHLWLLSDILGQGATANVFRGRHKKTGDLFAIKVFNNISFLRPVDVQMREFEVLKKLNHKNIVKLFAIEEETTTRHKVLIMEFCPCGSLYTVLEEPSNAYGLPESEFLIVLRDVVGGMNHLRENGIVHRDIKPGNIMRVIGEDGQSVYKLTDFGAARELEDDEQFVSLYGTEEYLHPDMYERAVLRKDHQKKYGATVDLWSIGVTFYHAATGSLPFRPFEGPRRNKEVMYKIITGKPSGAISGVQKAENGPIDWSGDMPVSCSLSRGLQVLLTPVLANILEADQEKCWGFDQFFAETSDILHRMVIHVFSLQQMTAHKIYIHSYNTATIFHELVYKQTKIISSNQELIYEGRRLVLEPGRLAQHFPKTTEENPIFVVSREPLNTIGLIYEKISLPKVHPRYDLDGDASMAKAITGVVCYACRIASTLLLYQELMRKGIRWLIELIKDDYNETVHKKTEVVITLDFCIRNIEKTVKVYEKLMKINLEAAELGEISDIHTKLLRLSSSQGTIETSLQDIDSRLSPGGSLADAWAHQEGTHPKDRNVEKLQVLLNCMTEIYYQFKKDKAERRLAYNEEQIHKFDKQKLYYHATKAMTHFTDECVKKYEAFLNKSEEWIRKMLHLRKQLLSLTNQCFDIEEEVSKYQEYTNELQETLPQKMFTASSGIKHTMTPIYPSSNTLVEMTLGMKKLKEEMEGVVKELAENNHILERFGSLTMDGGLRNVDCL

Structure (SMILES) | IC50 [1] | IC50 [2]
COc1nc(Nc2cc(-c3ccc(O[C@H]4CCN(C(=O)[C@H](C)O)CC4(F)F)c(C#N)c3)ncn2)ccc1N1CCN(C2COC2)C[C@H]1C [Example 103, 2-[[(4S)-3,3-difluoro-1-[(2S)-2-hydroxypropanoyl]piperidin-4-yl]oxy]-5-[6-([6-methoxy-5-[(2R)-2-methyl-4-(oxetan-3-yl)piperazin-1-yl]pyridin-2-yl]amino)pyrimidin-4-yl]benzonitrile] | < 100 nM | < 100 nM
COc1nc(Nc2cc(-c3ccc(O[C@@H]4CCN(C(=O)[C@H](C)O)CC4(F)F)c(C#N)c3)ncn2)ccc1N1CCN(C2COC2)C[C@H]1C [Example 104, 2-[[(4R)-3,3-difluoro-1-[(2S)-2-hydroxypropanoyl]piperidin-4-yl]oxy]-5-[6-([6-methoxy-5-[(2R)-2-methyl-4-(oxetan-3-yl)piperazin-1-yl]pyridin-2-yl]amino)pyrimidin-4-yl]benzonitrile] | < 100 nM | < 100 nM
COc1nc(Nc2cc(-c3ccc(OC4CCN(C(=O)[C@H](C)O)CC4)c(C#N)c3)ncn2)ccc1C(=O)N(C)C [Example 105, 6-([6-[3-cyano-4-([1-[(2S)-2-hydroxypropanoyl]piperidin-4-yl]oxy)phenyl]pyrimidin-4-yl]amino)-2-methoxy-N,N-dimethylpyridine-3-carboxamide] | < 100 nM | < 100 nM
